Laboratory results reported in ChEMBL document CHEMBL1201862, “PubChem BioAssay data set” (2004).
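Five compound concentrations were applied to cells in 96-well plates for 48 hours; endpoints were derived by simple linear interpolation of the resulting dose-response curve. GI50 marks 50% less growth.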 Calls of active or inactive are those of the source. Cut-off read from the data, not from the text of the source: active = GI50 up to about 1.1 µM and inactive = higher.

What was measured:
Assay in all cases: NCI-60 cell line screen, 48 h
[1] = tested on: HOP-92
[2] = tested on: HT-29
[3] = tested on: UACC-62
[4] = tested on: NCI-H522
[5] = tested on: IGROV-1
[6] = tested on: MOLT-4
[7] = tested on: SW-620
[8] = tested on: HCC 2998
[9] = tested on: DU-145
[10] = tested on: 786-0
[11] = tested on: A549
[12] = tested on: CAKI-1
[13] = tested on: BT-549
[14] = tested on: NCI-H23
[15] = tested on: T47D
[16] = tested on: CCRF-CEM
[17] = tested on: RXF 393
[18] = tested on: Malme-3M
[19] = tested on: SNB-75
[20] = tested on: A498

SMILES | GI50 [1] | GI50 [2] | GI50 [3] | GI50 [4] | GI50 [5] | GI50 [6] | GI50 [7] | GI50 [8] | GI50 [9] | GI50 [10] | GI50 [11] | GI50 [12] | GI50 [13] | GI50 [14] | GI50 [15] | GI50 [16] | GI50 [17] | GI50 [18] | GI50 [19] | GI50 [20]
COc1cc(/C=C/C(=N\NC(N)=S)c2sc(NNC(C)=O)nc2C)ccc1O | > 100 µM (inactive) | > 100 µM (inactive) | > 100 µM (inactive) | > 100 µM (inactive) | > 100 µM (inactive) | > 100 µM (inactive) | > 100 µM (inactive) | > 100 µM (inactive) | > 100 µM (inactive) | > 100 µM (inactive) | > 100 µM (inactive) | > 100 µM (inactive) | > 100 µM (inactive) | > 100 µM (inactive) | > 100 µM (inactive) | > 100 µM (inactive) | > 100 µM (inactive) | > 100 µM (inactive) | > 100 µM (inactive) | > 100 µM (inactive)
CNC(=O)/C(=C/c1ccc(OC)cc1)c1cc(OC)c(OC)c(OC)c1 | 13.9 µM (inactive) | 0.593 µM (active) | 0.67 µM (active) | 0.735 µM (active) | 4.76 µM (inactive) | 2.33 µM (inactive) | 0.802 µM (active) | 2.45 µM (inactive) | 2.74 µM (inactive) | 3.47 µM (inactive) | 1.69 µM (inactive) | 2.47 µM (inactive) | 50.8 µM (inactive) | 3.52 µM (inactive) | > 100 µM (inactive) | 2.32 µM (inactive) | 1.99 µM (inactive) | 0.887 µM (active) | 1.14 µM (inactive) | 3.51 µM (inactive)
CC1=C(C(=O)OCCO[N+](=O)[O-])C(c2ccccc2C(F)(F)F)C(C(=O)OC(C)C)=C(C)N1 (centres undefined) | 3.03 µM (inactive) | 14.2 µM (inactive) | 19.3 µM (inactive) | 16.9 µM (inactive) | 13.1 µM (inactive) | 4.7 µM (inactive) | 30.1 µM (inactive) | 22.4 µM (inactive) | 39.4 µM (inactive) | 15 µM (inactive) | 13.2 µM (inactive) | 11.4 µM (inactive) | 13.5 µM (inactive) | 19.6 µM (inactive) | 19.8 µM (inactive) | 27.3 µM (inactive) | 10.3 µM (inactive) | 18.3 µM (inactive) |  | 24.1 µM (inactive)
CC(C)(C)C(=O)N1CCN(C=O)C1=S | 16.8 µM (inactive) | > 100 µM (inactive) | 32.1 µM (inactive) | 26.8 µM (inactive) | 47.3 µM (inactive) | 61.5 µM (inactive) | 44.9 µM (inactive) | 64.9 µM (inactive) | 33.5 µM (inactive) | 36.7 µM (inactive) | 27.5 µM (inactive) | 34.6 µM (inactive) | 46.2 µM (inactive) | 77.3 µM (inactive) | 34 µM (inactive) | 29.8 µM (inactive) | 24.6 µM (inactive) | 61.4 µM (inactive) | 30.1 µM (inactive) | 18.7 µM (inactive)
Fc1ccc(C(OCCN2CC3CC2CN3)c2ccc(F)cc2)cc1 (centres undefined) | 69.2 µM (inactive) |  | 19.5 µM (inactive) | 47.3 µM (inactive) | 53.3 µM (inactive) | 43.1 µM (inactive) | > 100 µM (inactive) | 16.4 µM (inactive) | > 100 µM (inactive) |  |  | > 100 µM (inactive) | > 100 µM (inactive) | > 100 µM (inactive) | 35.2 µM (inactive) | 35.3 µM (inactive) | 27.4 µM (inactive) | 16.7 µM (inactive) | 66.4 µM (inactive) | 44.9 µM (inactive)
Oc1cccc2c(Cl)ccnc12 | 2.84 µM (inactive) | 9.51 µM (inactive) | 0.362 µM (active) | 0.741 µM (active) | 1.61 µM (inactive) | 0.376 µM (active) | 0.778 µM (active) | 4.43 µM (inactive) | 5.51 µM (inactive) | 10.9 µM (inactive) | 3.44 µM (inactive) | 2.39 µM (inactive) | 13.7 µM (inactive) | 3.15 µM (inactive) | 0.397 µM (active) | 0.266 µM (active) | 0.83 µM (active) | 6.97 µM (inactive) | 28.5 µM (inactive) | 15.8 µM (inactive)
O=C(/N=N/c1ccc(Br)cc1)NNc1ccc(Br)cc1 | 16.1 µM (inactive) | 17.4 µM (inactive) | 14.1 µM (inactive) | 16.2 µM (inactive) | 22.1 µM (inactive) | 11.8 µM (inactive) |  | 21.5 µM (inactive) | 40.8 µM (inactive) |  |  | 23.7 µM (inactive) | > 10 µM (inactive) | 22.5 µM (inactive) | 29.8 µM (inactive) | 0.132 µM (active) | 14.1 µM (inactive) | 26 µM (inactive) | 29.4 µM (inactive) | 44 µM (inactive)
O=C(O)CC(Cc1ccc2c(c1)OCO2)C(=O)O (centres undefined) | > 100 µM (inactive) | > 100 µM (inactive) | > 100 µM (inactive) | > 100 µM (inactive) | > 100 µM (inactive) | > 100 µM (inactive) | > 100 µM (inactive) | > 100 µM (inactive) | > 100 µM (inactive) | > 100 µM (inactive) | > 100 µM (inactive) |  | > 100 µM (inactive) | > 100 µM (inactive) | > 100 µM (inactive) | 56.2 µM (inactive) | > 100 µM (inactive) | > 100 µM (inactive) | > 100 µM (inactive) | > 100 µM (inactive)
O=c1c(C(c2ccc3ccccc3c2)c2c(O)oc3cc(O)ccc3c2=O)c(O)oc2cc(O)ccc12 | 75 µM (inactive) | > 100 µM (inactive) | > 100 µM (inactive) | 50.8 µM (inactive) | > 100 µM (inactive) | 44.4 µM (inactive) | > 100 µM (inactive) | > 100 µM (inactive) | > 100 µM (inactive) | > 100 µM (inactive) | > 100 µM (inactive) | > 100 µM (inactive) | 54.2 µM (inactive) | > 100 µM (inactive) | > 100 µM (inactive) | 43.2 µM (inactive) | 88.5 µM (inactive) |  | 17.5 µM (inactive) | > 100 µM (inactive)
COc1c2c(cc3c1OCO3)C13C=CC(OC)CC1N(CC3)C2.[O-][Cl+3]([O-])([O-])O (centres undefined) | > 100 µM (inactive) | 71 µM (inactive) | > 100 µM (inactive) | > 100 µM (inactive) | > 100 µM (inactive) | 36.4 µM (inactive) | > 100 µM (inactive) | 90.8 µM (inactive) | > 100 µM (inactive) | > 100 µM (inactive) | > 100 µM (inactive) | > 100 µM (inactive) | > 100 µM (inactive) | > 100 µM (inactive) | > 100 µM (inactive) | > 100 µM (inactive) | > 100 µM (inactive) | > 100 µM (inactive) | > 100 µM (inactive) | > 100 µM (inactive)
O=S(=O)(O)SCCNCCCCCC1CCCCC1 | 20.8 µM (inactive) | 6.9 µM (inactive) | 1.88 µM (inactive) | 18.4 µM (inactive) | 8.65 µM (inactive) | 8.05 µM (inactive) | 7.78 µM (inactive) | 5.41 µM (inactive) | 6.3 µM (inactive) | 13.4 µM (inactive) | 7.8 µM (inactive) | 19 µM (inactive) | 14.9 µM (inactive) | 10.4 µM (inactive) | 13.6 µM (inactive) | 6.24 µM (inactive) | 17.1 µM (inactive) | 18.8 µM (inactive) | 3.56 µM (inactive) | 25.1 µM (inactive)
CNC(C)C(O)c1ccc2oc3cc(=O)c4ccccc4c-3nc2c1 (centres undefined) | 94.6 µM (inactive) | 36.3 µM (inactive) | 3.82 µM (inactive) | 13.3 µM (inactive) | 31.5 µM (inactive) | 19.4 µM (inactive) | 6.35 µM (inactive) | 27.9 µM (inactive) | 5.31 µM (inactive) |  | 5.13 µM (inactive) | 16.1 µM (inactive) | 7.76 µM (inactive) | 4.3 µM (inactive) | 31.6 µM (inactive) | 5.52 µM (inactive) | 25.8 µM (inactive) | 5.64 µM (inactive) |  | 24 µM (inactive)
